From paper PMC12067145 (ACS Medicinal Chemistry Letters, 2025)

How the values were obtained:
HNC4 = HNC4 (Homo sapiens, UniProt Q9Y3Q4); experiment: Cardiac ion channel MPC selectivity panel; type: cell-based
male CD-1 mice = experiment: MK-801 challenged novel object recognition (NOR) task; type: in vivo, mouse; conditions: IP, 3.5 h prior to MK-801 (0.2 mg/kg IP)
Method: A plastic chamber (W 345×L 400×H 180 mm) was used for the novel object recognition test. The light intensity in the test room was maintained at approximately 20 lux. The novel object recognition test was conducted over two days. On the first day, mice were placed in the chamber without any objects and allowed to explore freely for 10 minutes to acclimate to the experimental environment. […] Thirty minutes after the MK-801 challenge, the acquisition trial

[1] = Plasma protein binding (human); type: in vitro ADME; conditions: pH 7.4, read-out: PPB human (converted)
Method: (§1) 0.3% DMSO - ΔRatio of 1 µM control compound)x100
In vitro Plasma protein binding and Brain homogenate binding: Determination of fraction unbound (f u) in plasma was conducted in vitro via equilibrium dialysis using HTDialysis (HTD) membrane plates. The top half of the plate was filled with 100 uL of Dubelco’s Phosphate Buffered Saline, pH 7.4 (DPBS). Compounds were diluted into plasma from each species (5 µM final concentration), which was aliquoted in triplicate to the ‘bottom half’ of the prepared HTD plate wells. The HTD plate was sealed and incubated for 6 hours at 37 °C. Following incubation, each well (both top and bottom halves) were transferred (20 µL) to the corresponding wells of a 96-shallow-well (V-bottom) plate. The daughter plates were then matrix-matched (DPBS side wells received equal volume of plasma, and plasma side wells received equal volume of DPBS), and extraction solution (120 µL; acetonitrile containing 50 nM carbamazepine as IS) was added to all wells of both daughter plates to precipitate protein and extract test article. The plates were then sealed and centrifuged (3500 rcf) for 10 minutes at ambient temperature. Supernatant (60 µL) from each well of the daughter plates was then transferred to the corresponding wells of new daughter plates (96-shallow-well, V bottom) containing water (Milli-Q, 60 µL/well), and the plates were sealed in preparation for LC-MS/MS analysis (see LC-MS/MS analysis method below).
The unbound fraction (f u) was calculated following the equation below, and mean values for each species were calculated from 3 replicates. A similar approach was used to determine the degree of brain homogenate binding, which employed the same methodology and procedure with the following modifications: 1) a final compound concentration of 1 μM was used, 2) naïve rat brains were homogenized in DPBS (1:3 composition of brain: DPBS, w/w) using a Mini-Bead Beater™ machine in order to obtain brain homogenate, which was then treated in the same manner as the plasma samples in the previously described plasma protein binding assay. Fraction unbound for both plasma and brain samples was determined using Equation 4.

[2] = Brain homogenate binding (mouse); type: in vitro ADME
Method: as §1
In vitro Plasma protein binding and Brain homogenate binding: Determination of fraction unbound (f u) in plasma was conducted in vitro via equilibrium dialysis using HTDialysis (HTD) membrane plates. The top half of the plate was filled with 100 uL of Dubelco’s Phosphate Buffered Saline, pH 7.4 (DPBS). Compounds were diluted into plasma from each species (5 µM final concentration), which was aliquoted in triplicate to the ‘bottom half’ of the prepared HTD plate wells. The HTD plate was sealed and incubated for 6 hours at 37 °C. […]
The unbound fraction (f u) was calculated following the equation below, and mean values for each species were calculated from 3 replicates. […] Fraction unbound for both plasma and brain samples was determined using Equation 4. […]
The diluted fraction unbound (fu2) in brain was calculated in the same manner by using brain homogenate rather than plasma. Undiluted fraction unbound for the brain was calculated using […]
were incubated in 100 mM potassium phosphate pH 7.4 buffer with 3 mM MgCl2 at 37 °C with constant shaking. […] The in vitro half-life (T 1/2, min, Eq. 1), intrinsic clearance (CLint, mL/min/kg, Eq. 2), and subsequent predicted hepatic clearance (CLhep, mL/min/kg, Eq. 3) were determined employing the following equations: […]

Dopamine D3 = Dopamine D3 (Homo sapiens, UniProt P35462); experiment: Eurofins lead profiling screen (radioligand binding)
Glucocorticoid = Glucocorticoid (Homo sapiens, UniProt P04150); experiment: as above
Melatonin MT1 = Melatonin MT1 (Homo sapiens, UniProt P48039); experiment: as above
Imidazoline I2, Central = experiment: as above; parameters: species or system Rat
Bradykinin B2 = Bradykinin B2 (Homo sapiens, UniProt P30411); experiment: as above
Dopamine D1 = Dopamine D1 (Homo sapiens, UniProt P21728); experiment: as above
Muscarinic M1 = Muscarinic M1 (Homo sapiens, UniProt P11229); experiment: as above
Opiate μ (OP3, MOP) = Opiate μ (OP3, MOP) (Homo sapiens, UniProt P35372); experiment: as above
Adrenergic α2A = Adrenergic α2A (Homo sapiens, UniProt P08913); experiment: as above
Histamine H3 = Histamine H3 (Homo sapiens, UniProt Q9Y5N1); experiment: as above
Opiate δ1 (OP1, DOP) = Opiate δ1 (OP1, DOP) (Homo sapiens, UniProt P41143); experiment: as above
Adrenergic α1A = Adrenergic α1A (Rattus norvegicus, UniProt P43140); experiment: as above
Adenosine A1 = Adenosine A1 (Homo sapiens, UniProt P30542); experiment: as above
Phorbol Ester = experiment: as above; parameters: species or system Mouse
Opiate κ (OP2, KOP) = Opiate κ (OP2, KOP) (Homo sapiens, UniProt P41145); experiment: as above
Endothelin ETB = Endothelin ETB (Homo sapiens, UniProt P24530); experiment: as above
Muscarinic M2 = Muscarinic M2 (Homo sapiens, UniProt P08172); experiment: as above
Rolipram = experiment: as above; parameters: species or system Rat

Dopamine D1, sequence (P21728 whole entry): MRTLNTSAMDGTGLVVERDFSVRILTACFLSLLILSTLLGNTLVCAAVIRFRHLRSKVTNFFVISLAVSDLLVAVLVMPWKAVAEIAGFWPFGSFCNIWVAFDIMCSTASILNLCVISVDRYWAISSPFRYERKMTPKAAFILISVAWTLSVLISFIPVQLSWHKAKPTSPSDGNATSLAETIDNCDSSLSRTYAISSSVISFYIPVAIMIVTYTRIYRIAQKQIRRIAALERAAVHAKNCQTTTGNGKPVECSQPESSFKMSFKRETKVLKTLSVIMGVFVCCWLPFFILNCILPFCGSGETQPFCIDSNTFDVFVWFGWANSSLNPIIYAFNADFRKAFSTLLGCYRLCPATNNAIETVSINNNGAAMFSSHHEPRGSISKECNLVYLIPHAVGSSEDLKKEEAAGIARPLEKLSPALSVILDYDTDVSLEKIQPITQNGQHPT
Endothelin ETB, sequence (P24530 27-442): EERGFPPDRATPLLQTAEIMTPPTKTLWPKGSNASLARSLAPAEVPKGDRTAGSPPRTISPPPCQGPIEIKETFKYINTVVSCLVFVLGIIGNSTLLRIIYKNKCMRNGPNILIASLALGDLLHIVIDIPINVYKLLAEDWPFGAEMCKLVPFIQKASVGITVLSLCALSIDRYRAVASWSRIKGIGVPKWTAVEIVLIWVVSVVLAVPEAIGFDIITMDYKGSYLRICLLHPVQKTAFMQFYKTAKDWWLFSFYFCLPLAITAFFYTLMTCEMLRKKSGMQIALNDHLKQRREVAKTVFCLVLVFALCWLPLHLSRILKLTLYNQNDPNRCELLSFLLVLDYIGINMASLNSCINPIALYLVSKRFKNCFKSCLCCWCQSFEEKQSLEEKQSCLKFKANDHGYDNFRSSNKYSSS
Opiate κ (OP2, KOP), sequence (P41145 whole entry): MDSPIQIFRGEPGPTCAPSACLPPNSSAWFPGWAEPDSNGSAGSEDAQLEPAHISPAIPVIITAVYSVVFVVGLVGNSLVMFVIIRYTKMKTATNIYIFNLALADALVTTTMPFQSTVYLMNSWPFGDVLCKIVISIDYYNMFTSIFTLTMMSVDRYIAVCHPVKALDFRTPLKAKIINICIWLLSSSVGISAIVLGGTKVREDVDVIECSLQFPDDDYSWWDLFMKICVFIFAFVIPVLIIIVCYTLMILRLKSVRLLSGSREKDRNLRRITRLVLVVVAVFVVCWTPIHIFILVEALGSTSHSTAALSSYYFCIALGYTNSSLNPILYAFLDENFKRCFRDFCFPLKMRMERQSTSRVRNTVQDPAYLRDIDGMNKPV
HNC4, sequence (Q9Y3Q4 whole entry): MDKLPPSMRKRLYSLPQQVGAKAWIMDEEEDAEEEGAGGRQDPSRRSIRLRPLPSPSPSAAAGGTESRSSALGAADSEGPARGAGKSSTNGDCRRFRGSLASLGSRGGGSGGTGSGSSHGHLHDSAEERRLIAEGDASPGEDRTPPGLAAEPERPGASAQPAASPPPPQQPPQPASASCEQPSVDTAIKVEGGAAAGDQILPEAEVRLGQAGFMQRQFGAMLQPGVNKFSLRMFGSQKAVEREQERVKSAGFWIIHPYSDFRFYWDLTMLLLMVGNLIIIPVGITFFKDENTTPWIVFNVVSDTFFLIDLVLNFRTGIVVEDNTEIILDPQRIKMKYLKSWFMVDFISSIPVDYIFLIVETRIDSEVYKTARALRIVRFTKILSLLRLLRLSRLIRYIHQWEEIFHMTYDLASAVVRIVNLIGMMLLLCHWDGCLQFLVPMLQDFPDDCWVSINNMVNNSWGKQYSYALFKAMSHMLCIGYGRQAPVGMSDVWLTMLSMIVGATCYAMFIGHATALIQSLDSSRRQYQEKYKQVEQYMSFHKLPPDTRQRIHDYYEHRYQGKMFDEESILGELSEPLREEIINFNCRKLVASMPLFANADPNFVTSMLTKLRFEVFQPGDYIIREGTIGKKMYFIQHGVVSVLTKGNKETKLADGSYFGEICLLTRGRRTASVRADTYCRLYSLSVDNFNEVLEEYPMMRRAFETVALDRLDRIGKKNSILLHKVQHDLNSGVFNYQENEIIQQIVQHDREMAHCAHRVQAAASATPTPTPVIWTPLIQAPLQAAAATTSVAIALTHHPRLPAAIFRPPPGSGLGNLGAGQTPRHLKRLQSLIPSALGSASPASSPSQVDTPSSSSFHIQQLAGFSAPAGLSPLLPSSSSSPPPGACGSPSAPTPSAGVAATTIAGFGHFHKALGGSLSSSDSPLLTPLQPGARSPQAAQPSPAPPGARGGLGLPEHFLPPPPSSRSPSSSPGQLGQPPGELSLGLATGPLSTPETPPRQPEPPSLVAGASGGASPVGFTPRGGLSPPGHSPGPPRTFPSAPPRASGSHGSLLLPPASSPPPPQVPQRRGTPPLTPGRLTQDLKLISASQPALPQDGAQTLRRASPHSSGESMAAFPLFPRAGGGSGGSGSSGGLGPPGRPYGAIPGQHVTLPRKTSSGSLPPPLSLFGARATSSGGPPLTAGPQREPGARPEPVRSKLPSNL
Melatonin MT1, sequence (P48039 whole entry): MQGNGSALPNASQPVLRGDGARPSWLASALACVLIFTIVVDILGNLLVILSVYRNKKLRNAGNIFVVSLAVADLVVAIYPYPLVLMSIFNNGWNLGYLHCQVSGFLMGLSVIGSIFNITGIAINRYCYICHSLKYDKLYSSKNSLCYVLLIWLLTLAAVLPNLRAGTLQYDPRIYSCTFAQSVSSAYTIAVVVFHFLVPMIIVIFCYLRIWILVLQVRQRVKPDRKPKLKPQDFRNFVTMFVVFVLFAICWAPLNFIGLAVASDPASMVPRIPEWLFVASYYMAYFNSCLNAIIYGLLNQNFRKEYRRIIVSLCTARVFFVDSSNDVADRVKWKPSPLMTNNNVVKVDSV
Opiate μ (OP3, MOP), sequence (P35372 whole entry): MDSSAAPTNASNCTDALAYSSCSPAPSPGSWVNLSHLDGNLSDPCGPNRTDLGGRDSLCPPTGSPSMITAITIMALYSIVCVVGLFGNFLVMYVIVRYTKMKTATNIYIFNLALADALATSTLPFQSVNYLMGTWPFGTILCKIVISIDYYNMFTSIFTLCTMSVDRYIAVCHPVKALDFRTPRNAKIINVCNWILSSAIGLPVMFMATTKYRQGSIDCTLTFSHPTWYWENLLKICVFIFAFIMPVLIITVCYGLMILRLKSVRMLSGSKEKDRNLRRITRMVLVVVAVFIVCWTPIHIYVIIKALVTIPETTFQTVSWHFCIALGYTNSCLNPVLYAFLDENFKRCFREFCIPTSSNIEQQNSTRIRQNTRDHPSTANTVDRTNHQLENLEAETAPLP
Adrenergic α1A, sequence (P43140 whole entry): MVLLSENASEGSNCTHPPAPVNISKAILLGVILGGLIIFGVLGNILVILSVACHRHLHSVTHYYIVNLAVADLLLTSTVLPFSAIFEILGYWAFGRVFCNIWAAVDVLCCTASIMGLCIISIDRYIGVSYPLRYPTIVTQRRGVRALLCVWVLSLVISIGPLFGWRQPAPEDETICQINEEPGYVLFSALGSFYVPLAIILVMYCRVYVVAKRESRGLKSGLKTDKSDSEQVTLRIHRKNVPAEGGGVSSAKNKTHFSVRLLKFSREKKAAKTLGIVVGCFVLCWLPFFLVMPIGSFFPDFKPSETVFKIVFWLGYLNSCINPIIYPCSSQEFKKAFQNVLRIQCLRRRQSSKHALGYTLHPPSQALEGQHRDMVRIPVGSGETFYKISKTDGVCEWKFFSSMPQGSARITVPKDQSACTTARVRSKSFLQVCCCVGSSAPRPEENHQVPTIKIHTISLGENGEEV
Glucocorticoid, sequence (P04150 whole entry): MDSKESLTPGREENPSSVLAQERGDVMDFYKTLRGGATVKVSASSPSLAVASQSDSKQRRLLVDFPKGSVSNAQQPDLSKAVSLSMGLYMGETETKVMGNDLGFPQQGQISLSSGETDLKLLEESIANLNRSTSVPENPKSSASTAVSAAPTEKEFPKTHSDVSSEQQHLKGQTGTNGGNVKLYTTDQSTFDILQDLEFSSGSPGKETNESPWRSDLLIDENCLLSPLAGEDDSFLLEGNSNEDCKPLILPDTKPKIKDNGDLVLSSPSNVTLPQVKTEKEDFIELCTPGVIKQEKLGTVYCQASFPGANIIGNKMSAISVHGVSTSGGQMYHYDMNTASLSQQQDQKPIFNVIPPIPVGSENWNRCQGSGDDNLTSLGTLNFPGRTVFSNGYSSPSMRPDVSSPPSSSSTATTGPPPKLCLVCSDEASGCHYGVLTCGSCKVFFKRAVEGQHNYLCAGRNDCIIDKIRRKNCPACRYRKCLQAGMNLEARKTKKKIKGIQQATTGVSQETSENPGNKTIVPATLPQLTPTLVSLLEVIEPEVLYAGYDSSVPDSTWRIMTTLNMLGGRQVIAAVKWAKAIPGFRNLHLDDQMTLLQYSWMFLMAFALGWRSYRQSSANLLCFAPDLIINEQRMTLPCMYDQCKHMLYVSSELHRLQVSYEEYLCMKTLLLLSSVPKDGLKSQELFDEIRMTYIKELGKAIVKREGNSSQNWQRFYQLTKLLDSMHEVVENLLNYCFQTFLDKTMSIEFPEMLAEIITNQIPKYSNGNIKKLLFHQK
Muscarinic M1, sequence (P11229 whole entry): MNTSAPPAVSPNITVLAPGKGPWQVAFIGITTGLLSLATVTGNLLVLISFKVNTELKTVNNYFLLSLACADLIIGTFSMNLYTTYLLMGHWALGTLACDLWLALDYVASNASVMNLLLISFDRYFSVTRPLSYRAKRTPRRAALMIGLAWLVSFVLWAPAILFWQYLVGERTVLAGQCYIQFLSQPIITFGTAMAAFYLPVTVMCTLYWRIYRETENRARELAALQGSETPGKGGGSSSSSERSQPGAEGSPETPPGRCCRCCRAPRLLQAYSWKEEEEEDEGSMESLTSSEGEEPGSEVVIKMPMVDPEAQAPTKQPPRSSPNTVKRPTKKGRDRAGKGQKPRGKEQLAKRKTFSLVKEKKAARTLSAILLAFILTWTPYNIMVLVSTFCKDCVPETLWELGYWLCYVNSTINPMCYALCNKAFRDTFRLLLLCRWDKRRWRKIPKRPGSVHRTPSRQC

Cc1cc(C#Cc2ccc(F)cc2)cnc1NC(=O)c1cc(NC(=O)OC(C)(C)C)ccc1Cl [Compound 14c]
% at 10 μM, HNC4 (HNC4): < 50%
minimum effective dose (MED) (male CD-1 mice): 10 mg/kg
fraction unbound at 6 h, 5 µM [1]: 0.006
brain homogenate binding mouse [2]: 99.4%

O=C(NCc1ccc(OC(F)(F)F)cc1F)c1ccc2ncnn2c1 [ONO-2920632]
inhibition at 10 µM (Dopamine D3): 12%
inhibition at 10 µM (Glucocorticoid): -4%
inhibition at 10 µM (Melatonin MT1): 29%
% Inhibition at 10 µM (Imidazoline I2, Central): 10%
inhibition at 10 µM (Bradykinin B2): -10%
inhibition at 10 µM (Dopamine D1): 8%
inhibition at 10 µM (Muscarinic M1): 4%
inhibition at 10 µM (Opiate μ (OP3, MOP)): 15%
inhibition at 10 µM (Adrenergic α2A): 36%
inhibition at 10 µM (Histamine H3): 4%
inhibition at 10 µM (Opiate δ1 (OP1, DOP)): -8%
inhibition at 10 µM (Adrenergic α1A): 40%
inhibition at 10 µM (Adenosine A1): 2%
% Inhibition at 10 µM (Phorbol Ester): -7%
inhibition at 10 µM (Opiate κ (OP2, KOP)): 9%
inhibition at 10 µM (Endothelin ETB): -6%
inhibition at 10 µM (Muscarinic M2): 0%
% Inhibition at 10 µM (Rolipram): 5%
